In ChEMBL document CHEMBL1130458, “Inhibition of carboxypeptidase a by N-(4-t-Butylbenzoyl)-2-hydroxy-1-naphthaldehyde hydrazone” (Bioorg Med Chem Lett, 1997) one finds inhibition and IC50 data, which are given here for three molecules.

Assay [1] concerns the target T1, Carboxypeptidase A1 (Bos taurus) (UniProt P00730).
T1 sequence (whole entry): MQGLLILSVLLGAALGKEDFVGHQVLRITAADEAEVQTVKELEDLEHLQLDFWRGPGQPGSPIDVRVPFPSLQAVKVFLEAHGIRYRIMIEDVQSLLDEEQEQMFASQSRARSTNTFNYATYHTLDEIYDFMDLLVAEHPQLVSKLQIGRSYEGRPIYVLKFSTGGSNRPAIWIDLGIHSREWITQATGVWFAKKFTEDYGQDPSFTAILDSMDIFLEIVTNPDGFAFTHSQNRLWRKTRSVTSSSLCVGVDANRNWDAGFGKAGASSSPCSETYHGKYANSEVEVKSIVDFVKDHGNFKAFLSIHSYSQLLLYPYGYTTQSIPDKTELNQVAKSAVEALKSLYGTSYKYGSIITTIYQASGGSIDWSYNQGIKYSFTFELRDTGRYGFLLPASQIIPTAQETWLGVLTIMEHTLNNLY
Briefly: Percentage inhibition of carboxypeptidase A (CPA, bovine, Type I) enzyme by the compound required to inhibit at 63 uM was evaluated.

The target of assay [2] is T2, Angiotensin-converting enzyme (Oryctolagus cuniculus) (UniProt P12822).
T2 sequence (whole entry): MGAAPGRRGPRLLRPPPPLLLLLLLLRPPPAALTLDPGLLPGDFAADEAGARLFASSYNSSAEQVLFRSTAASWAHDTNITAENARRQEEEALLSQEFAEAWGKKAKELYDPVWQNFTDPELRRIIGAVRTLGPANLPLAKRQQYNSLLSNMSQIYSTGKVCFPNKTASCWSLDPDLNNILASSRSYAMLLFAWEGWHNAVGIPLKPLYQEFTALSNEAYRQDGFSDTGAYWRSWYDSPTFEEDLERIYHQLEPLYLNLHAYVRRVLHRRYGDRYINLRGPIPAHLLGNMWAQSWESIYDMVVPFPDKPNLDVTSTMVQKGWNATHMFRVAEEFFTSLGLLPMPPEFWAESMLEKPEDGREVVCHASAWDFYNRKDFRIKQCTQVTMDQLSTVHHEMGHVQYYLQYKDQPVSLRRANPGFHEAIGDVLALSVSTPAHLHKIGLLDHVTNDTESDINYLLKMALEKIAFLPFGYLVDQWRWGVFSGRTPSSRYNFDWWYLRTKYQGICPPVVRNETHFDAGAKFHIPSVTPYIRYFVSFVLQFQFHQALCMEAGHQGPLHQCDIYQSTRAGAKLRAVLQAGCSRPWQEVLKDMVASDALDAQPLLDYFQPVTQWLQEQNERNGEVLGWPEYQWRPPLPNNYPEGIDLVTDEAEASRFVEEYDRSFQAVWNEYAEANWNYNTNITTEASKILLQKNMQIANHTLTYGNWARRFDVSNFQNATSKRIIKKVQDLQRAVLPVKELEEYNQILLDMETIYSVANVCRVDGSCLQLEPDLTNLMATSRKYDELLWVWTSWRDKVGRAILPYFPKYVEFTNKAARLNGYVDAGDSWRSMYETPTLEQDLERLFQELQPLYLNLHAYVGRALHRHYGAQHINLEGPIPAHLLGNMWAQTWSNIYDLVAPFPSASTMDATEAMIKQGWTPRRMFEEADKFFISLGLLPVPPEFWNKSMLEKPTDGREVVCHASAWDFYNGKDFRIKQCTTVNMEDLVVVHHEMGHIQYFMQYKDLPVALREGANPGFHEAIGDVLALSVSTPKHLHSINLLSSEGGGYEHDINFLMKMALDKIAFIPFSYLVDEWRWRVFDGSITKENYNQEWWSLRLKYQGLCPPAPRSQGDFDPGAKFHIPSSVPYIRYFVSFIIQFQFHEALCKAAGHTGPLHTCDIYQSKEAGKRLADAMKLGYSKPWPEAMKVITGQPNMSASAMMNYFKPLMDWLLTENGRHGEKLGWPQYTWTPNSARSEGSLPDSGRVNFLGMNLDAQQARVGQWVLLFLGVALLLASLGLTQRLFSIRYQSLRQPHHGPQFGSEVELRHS
Briefly: Percentage inhibition of angiotensin converting enzyme (rabbit lung) by the compound required to inhibit at 63 uM was evaluated.

The target in the next assay is T3, Carboxypeptidase A1 (Bos taurus, UniProt P00730).
T3 sequence (P00730 whole entry): T1 sequence (whole entry)
Briefly: Inhibitory concentration required to inhibit carboxypeptidase A (CPA, bovine, Type I) was evaluated.

As a reminder, the inhibition is the share of the control response that was lost under treatment. A higher inhibition goes with a strong effect. Take `CC(C)(C)c1ccc(C(=O)N/N=C/c2cccc3ccccc23)cc1`: the figures for the inhibition in assay [1] and in assay [2] were 17% and 2%, respectively.
In general, IC50 refers to the concentration that inhibits the measured activity by half. Low readings indicate higher potency, high ones lower potency. On to `CC(C)(C)c1ccc(C(=O)N/N=C/c2c(O)ccc3ccccc23)cc1`, for which, on Carboxypeptidase A1, the IC50 is 29 µM. This molecule returned an inhibition in assay [2] of 5%.
In the case of `CC(C)(C)c1ccc(C(=O)N/N=C/c2ccccc2O)cc1`, the inhibition was 33% in assay [1] and 3% in assay [2].
